Source: US20220324865A1 (Bayer Aktiengesellschaft, priority 2018, published 2022)
Structures can show the parent of a compound that is named as a salt.

These compounds were tested against T1, human EP3 receptor (Homo sapiens, UniProt P43115) (assay: Cellular in vitro assay for determining EP3 receptor activity (human EP3 cell line, sulprostone-stimulated calcium luminescence)). Conditions: CHO cells expressing human EP3 and mitochondrial Clytin; antagonist mode, sulprostone at EC50; read-out: EP3 CHO mtCLY ANTAG IC50.
T1 construct: expressed in transfected cells; host or cells: CHO K1 (Chinese Hamster Ovary), stably co-transfected with Galpha16 and mitochondrial clytin
T1 sequence (P43115 1-390): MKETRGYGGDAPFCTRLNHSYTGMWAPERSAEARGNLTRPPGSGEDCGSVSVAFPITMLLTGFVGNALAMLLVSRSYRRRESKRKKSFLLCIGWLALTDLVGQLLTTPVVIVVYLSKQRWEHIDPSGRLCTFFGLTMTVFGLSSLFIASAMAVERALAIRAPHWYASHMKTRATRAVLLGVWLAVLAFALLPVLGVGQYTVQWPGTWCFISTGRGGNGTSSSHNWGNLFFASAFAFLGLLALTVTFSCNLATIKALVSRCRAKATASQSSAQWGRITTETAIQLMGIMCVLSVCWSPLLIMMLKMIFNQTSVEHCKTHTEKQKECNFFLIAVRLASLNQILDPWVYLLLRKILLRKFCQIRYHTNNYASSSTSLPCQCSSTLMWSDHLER
Type: cell-based
In short: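 Antagonist activity was measured as inhibition of the luminescent calcium signal elicited by EC50 sulprostone, following 10 min compound pretreatment. The cell line was recombinant CHO K1 co-expressing human EP3, Gα16 and the photoprotein Clytin, reconstituted with coelenterazine.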

SMILES	IC50 [nM]
COc1ccc([C@@H](C)NC(=O)c2cc3c(=O)[nH]c(-c4ccc5c(c4F)OCCO5)cn3n2)cn1 [Example 1-108, 6-(5-Fluoro-2,3-dihydro-1,4-benzodioxin-6-yl)-N-[(1R)-1-(6-methoxpyridin-3-yl)ethyl]-4-oxo-4,5-dihydropyrazolo[1,5-a]pyrazine-2-carboxamide]	2.5
C[C@@H](NC(=O)c1cc2c(=O)[nH]c(-c3ccc4c(c3)CCC4)cn2n1)c1ccc(F)cc1 [Example 1-98, 6-(2,3-Dihydro-1H-inden-5-yl)-N-[(1R)-1-(4-fluorophenyl)ethyl]-4-oxo-4,5-dihydropyrazolo[1,5-a]-pyrazine-2-carboxamide]	3.45
Cc1cccc(C)c1OCC(C)NC(=O)c1cc2c(=O)[nH]c(-c3ccc4ccccc4c3)cn2n1 (centres unmarked) [Example 2-30, N-[1-(2,6-Dimethylphenoxy)propan-2-yl]-6-(2-naphthyl)-4-oxo-4,5-dihydropyrazolo[1,5-a]pyrazine-2-carboxamide]	5.45
O=C(N[C@H]1CCc2ccccc21)c1cc2c(=O)[nH]c(-c3ccc4ccccc4c3)cn2n1 [Example 2-42, N-[(7S)-2,3-Dihydro-1H-inden-1-yl]-6-(2-naphthyl)-4-oxo-4,5-dihydropyrazolo[1,5-a]pyrazine-2-carboxamide]	7.27
Cc1c(C(=O)NC(C)c2cccnc2)nn2c(C)c(-c3ccc4ccccc4c3)[nH]c(=O)c12 (centres unmarked) [Example 3-73, 3,7-Dimethyl-6-(2-naphthyl)-4-oxo-N-[1-(3-pyridyl)ethyl]-5H-pyrazolo[1,5-a]pyrazine-2-carboxamide]	2.7
O=C(NC(c1ccccc1)C(F)F)c1cc2c(=O)[nH]c(-c3ccc4ccccc4c3)cn2n1 (centres unmarked) [Example 2-4, N-(2,2-Difluoro-1-phenylethyl)-6-(2-naphthyl)-4-oxo-4,5-dihydropyrazolo[1,5-a]pyrazine-2-carboxamide]	1.07
CCN1CC(NC(=O)c2cc3c(=O)[nH]c(-c4ccc5ccccc5c4)cn3n2)(c2ccc(F)cc2)C1 [Example 1-145, N-[3-(4-Fluorophenyl)-1-ethylazetidin-3-yl]-6-(naphthalen-2-yl)-4-oxo-4,5-dihydropyrazolo[1,5-a]-pyrazine-2-carboxamide formic acid salt]	7.05
CC(C)(C)OC(=O)N1CC(NC(=O)c2cc3c(=O)[nH]c(-c4ccc5ccccc5c4)cn3n2)(c2ccc(F)cc2)C1 [Example 1-47, tert.-Butyl 3-(4-fluorophenyl)-3-({[6-(naphthalen-2-yl)-4-oxo-4,5-dihydropyrazolo[1,5-a]pyrazin-2-yl]carbonyl}amino)azetidine-1-carboxylate]	4.65
CC(C)(O)[C@@H](NC(=O)c1nn2cc(-c3ccc(Cl)c(Cl)c3)[nH]c(=O)c2c1C1CC1)c1ccc(F)cc1 [Example 1-168, 3-Cyclopropyl-6-(3,4-dichlorophenyl)-N-[(1S)-1-(4-fluorophenyl)-2-hydroxy-2-methylpropyl]-4-oxo-4,5-dihydropyrazolo[1,5-a]pyrazine-2-carboxamide]	1.9
CCCN1CC(NC(=O)c2nn3cc(-c4ccc5ccccc5c4)[nH]c(=O)c3c2C(F)(F)F)(c2ccc(F)cc2)C1 [Example 1-127, N-[3-(4-Fluorophenyl)-1-propylazetidin-3-yl]-6-(naphthalen-2-yl)-4-oxo-3-(trifluoromethyl)-4,5-dihydropyrazolo[1,5-a]pyrazine-2-carboxamide]	2.15
CC(NC(=O)c1cc2c(=O)[nH]c(-c3ccc4ccccc4c3)cn2n1)c1ccc(Cl)cc1Cl (centres unmarked) [Example 2-47, N-[1-(2,4-Dichlorphenyl)ethyl]-6-(2-naphthyl)-4-oxo-4,5-dihydropyrazolo[1,5-a]pyrazine-2-carboxamide]	3.27
Cc1ccc([C@H](C)NC(=O)c2nn3c(C)c(-c4ccc5ccccc5c4)[nH]c(=O)c3c2C)cc1 [Example 3-20, 3,7-Dimethyl-N-[(7S)-1-(4-methylphenyl)ethyl]-6-(naphthalen-2-yl)-4-oxo-4,5-dihydropyrazolo[1,5-a]pyrazine-2-carboxamide]	8
Cc1cc(-c2cn3nc(C(=O)N[C@H](C)C(C)C)c(C4CC4)c3c(=O)[nH]2)ccc1C(F)(F)F [Example 1-139, 3-Cyclopropyl-N-[(2R)-3-methylbutan-2-yl]-6-[3-methyl-4-(trifluoromethyl)phenyl]-4-oxo-4,5-dihydropyrazolo[1,5-a]pyrazine-2-carboxamide]	7.55
O=C(NC(CN1CCOCC1)c1ccc(F)cc1)c1cc2c(=O)[nH]c(-c3ccc4ccccc4c3)cn2n1 (centres unmarked) [Example 1-40, N-[1-(4-Fluorophenyl)-2-morpholinoethyl]-6-(2-naphthyl)-4-oxo-5H-pyrazolo[1,5-a]pyrazine-2-carboxamide]	8.27
CC(C)(O)[C@@H](NC(=O)c1nn2cc(-c3ccc4ccccc4c3)[nH]c(=O)c2c1C(F)(F)F)c1ccccc1 [Example 1-18, N-[(1S)-2-Hydroxy-2-methyl-1-phenylpropyl]-6-(naphthalen-2-yl)-4-oxo-3-(trifluoromethyl)-4,5-dihydropyrazolo[1,5-a]pyrazine-2-carboxamide]	1.04
Cc1ccc(-c2[nH]c(=O)c3c(C(F)(F)F)c(C(=O)N[C@H](C)c4ccc(F)cc4)nn3c2C)cc1C [Example 1-123, 6-(3,4-Dimethylphenyl)-N-[(1R)-1-(4-fluorophenyl)ethyl]-7-methyl-4-oxo-3-(trifluoromethyl)-4,5-dihydropyrazolo[1,5-a]pyrazine-2-carboxamide]	3.2

Other lines, results leading:

IC50 [nM]	SMILES
2.95	Cc1cc(-c2cn3nc(C(=O)NCC(O)(C(F)(F)F)C(F)(F)F)c(C4CC4)c3c(=O)[nH]2)ccc1Cl [6-305]
0.26	Cc1ccc(-c2cn3nc(C(=O)NCC(O)C(F)(F)F)c(C4CC4)c3c(=O)[nH]2)cc1C (racemic) [6-435]
7.7	Cc1cccc2ncc(-c3cn4nc(C(=O)N[C@@H]5CCCc6ccccc65)c(C(C)C)c4c(=O)[nH]3)cc12 [Example 4-5, 6-(5-Methylquinolin-3-yl)-4-oxo-3-(propan-2-yl)-N-[(7R)-1,2,3,4-tetrahydronaphthalen-1-yl]-4,5-dihydropyrazolo[1,5-a]pyrazine-2-carboxamide]
1.52	Cc1ccc(-c2cn3nc(C(=O)NC(c4ccc(F)cc4)C4(O)CC4)c(C4CC4)c3c(=O)[nH]2)cc1F (racemic) [6-381]
1.95	Cc1ccc(-c2cn3nc(C(=O)NC(c4ccc(F)cc4)C(F)(F)CO)cc3c(=O)[nH]2)cc1C (racemic) [6-357]
2.35	CC(C)(O)[C@@H](NC(=O)c1nn2cc(-c3ccc(C(F)(F)F)c(Cl)c3)[nH]c(=O)c2c1C1CC1)c1ccc(F)cc1 [6-598]
3.5	Cc1ccc(-c2cn3nc(C(=O)N[C@@H](c4ccc(F)cc4)C(C)(C)O)c(CC(F)(F)F)c3c(=O)[nH]2)cc1F [6-633]
2.45	COc1ccccc1C(C)NC(=O)c1nn2cc(-c3cnc4cccc(C)c4c3)[nH]c(=O)c2c1C(C)C (centres unmarked) [Example 4-4, 3-Isopropyl-N-[1-(2-methoxyphenyl)ethyl]-6-(5-methyl-3-quinolyl)-4-oxo-5H-pyrazolo[1,5-a]pyrazine-2-carboxamide]
0.97	O=C(N[C@H](CCO)c1ccccc1)c1cc2c(=O)[nH]c(-c3ccc4ccccc4c3)cn2n1 [6-541]
3.9	Cc1cccc2ncc(-c3cn4nc(C(=O)NC(CO)c5cc(Cl)cc(Cl)c5)c(C(C)C)c4c(=O)[nH]3)cc12 (centres unmarked) [Example 4-66, N-[1-(3,5-Dichlorophenyl)-2-hydroxyethyl]-3-isopropyl-6-(5-methyl-3-quinolyl)-4-oxo-5H-pyrazolo[1,5-a]pyrazine-2-carboxamide]
2.3	COC[C@@H](NC(=O)c1nn2cc(-c3ccc4c(c3)ncn4C)[nH]c(=O)c2c1C1CC1)c1ccccc1 [6-600]
2.97	C[C@@H](NC(=O)c1cc2c(=O)[nH]c(-c3ccc4ccccc4c3)cn2n1)c1ccc(F)cc1 [6-78]
5.55	Cc1ccc(-c2cn3nc(C(=O)NCC(O)C(F)(F)F)c(C4CC4)c3c(=O)[nH]2)cc1C(F)(F)F (single isomer, unassigned) [6-244]
7.4	Cc1cccc2ncc(-c3cn4nc(C(=O)NCC(N)=O)c(C(C)C)c4c(=O)[nH]3)cc12 [Example 4-31, N-(2-Amino-2-oxoethyl)-6-(5-methylquinolin-3-yl)-4-oxo-3-(propan-2-yl)-4,5-dihydropyrazolo[1,5-a]pyrazine-2-carboxamide]
4.13	CCC(NC(=O)c1cc2c(=O)[nH]c(-c3ccc4ccccc4c3)cn2n1)C(F)(F)F (centres unmarked) [6-61]
1.02	COCc1c(C(=O)N[C@@H](c2ccc(F)cc2)C(F)(F)CO)nn2cc(-c3ccc(C)c(Cl)c3)[nH]c(=O)c12 [6-626]
4.4	Cc1ccc(-c2cn3nc(C(=O)NC(CO)C(F)(F)F)c(C4CC4)c3c(=O)[nH]2)cc1F (racemic) [6-392]
1.15	Cc1cc(-c2cn3nc(C(=O)N[C@@H](C)C4CC4)c(C4CC(F)(F)C4)c3c(=O)[nH]2)ccc1Cl [6-558]
3.23	Cc1ccc(-c2cn3nc(C(=O)NC(CN(C)C)c4ccc(F)cc4)c(C4CC4)c3c(=O)[nH]2)cc1C (racemic) [6-444]
3.4	COc1cc(-c2cn3nc(C(=O)NC4(c5ccc(F)cc5)CN(C)C4)c(C4CC4)c3c(=O)[nH]2)ccc1Cl [6-485]
7.6	Cc1cc(-c2cn3nc(C(=O)NCC(N)C(F)(F)F)c(C4CC4)c3c(=O)[nH]2)ccc1C(F)(F)F (single isomer, unassigned) [6-132]
0.63	CC(C)(O)[C@@H](NC(=O)c1nn2cc(-c3cc(Cl)c(Cl)cc3F)[nH]c(=O)c2c1C1CC1)c1ccc(F)cc1 [6-583]
